Data taken from the CheMixHub viscosity set.
± gives the uncertainty stated by the source.

Experiment: xn = mol fraction of the nth substance listed

## O=CO + O
293.15 K, 101.33 kPa, x1 = 0.0417
  viscosity: 1.098 ± 0.011 mPa·s
293.15 K, 101.33 kPa, x1 = 0.1309
  viscosity: 1.195 ± 0.012 mPa·s
293.15 K, 101.33 kPa, x1 = 0.144
  viscosity: 1.216 ± 0.012 mPa·s
293.15 K, 101.33 kPa, x1 = 0.1574
  viscosity: 1.215 ± 0.012 mPa·s
293.15 K, 101.33 kPa, x1 = 0.2621
  viscosity: 1.323 ± 0.013 mPa·s
293.15 K, 101.33 kPa, x1 = 0.2708
  viscosity: 1.328 ± 0.013 mPa·s
293.15 K, 101.33 kPa, x1 = 0.281
  viscosity: 1.344 ± 0.013 mPa·s
293.15 K, 101.33 kPa, x1 = 0.2928
  viscosity: 1.347 ± 0.013 mPa·s
293.15 K, 101.33 kPa, x1 = 0.3352
  viscosity: 1.394 ± 0.014 mPa·s
293.15 K, 101.33 kPa, x1 = 0.338
  viscosity: 1.4 ± 0.014 mPa·s
293.15 K, 101.33 kPa, x1 = 0.3556
  viscosity: 1.4 ± 0.014 mPa·s
293.15 K, 101.33 kPa, x1 = 0.3729
  viscosity: 1.414 ± 0.014 mPa·s
293.15 K, 101.33 kPa, x1 = 0.4039
  viscosity: 1.478 ± 0.015 mPa·s
293.15 K, 101.33 kPa, x1 = 0.4086
  viscosity: 1.48 ± 0.015 mPa·s
293.15 K, 101.33 kPa, x1 = 0.4832
  viscosity: 1.519 ± 0.015 mPa·s
293.15 K, 101.33 kPa, x1 = 0.5055
  viscosity: 1.525 ± 0.015 mPa·s
293.15 K, 101.33 kPa, x1 = 0.5951
  viscosity: 1.601 ± 0.016 mPa·s
293.15 K, 101.33 kPa, x1 = 0.9418
  viscosity: 1.68 ± 0.017 mPa·s
298.15 K, 101 kPa, x1 = 0.0122
  viscosity: 0.907 ± 0.18 mPa·s
298.15 K, 101 kPa, x1 = 0.1286
  viscosity: 1.041 ± 0.21 mPa·s
298.15 K, 101 kPa, x1 = 0.525
  viscosity: 1.379 ± 0.28 mPa·s
298.15 K, 101.33 kPa, x1 = 0.1037
  viscosity: 0.979 ± 0.0098 mPa·s
298.15 K, 101.33 kPa, x1 = 0.1496
  viscosity: 1.029 ± 0.01 mPa·s
298.15 K, 101.33 kPa, x1 = 0.1753
  viscosity: 1.039 ± 0.01 mPa·s
298.15 K, 101.33 kPa, x1 = 0.2194
  viscosity: 1.076 ± 0.011 mPa·s
298.15 K, 101.33 kPa, x1 = 0.3029
  viscosity: 1.174 ± 0.012 mPa·s
298.15 K, 101.33 kPa, x1 = 0.3271
  viscosity: 1.219 ± 0.012 mPa·s
298.15 K, 101.33 kPa, x1 = 0.3334
  viscosity: 1.227 ± 0.012 mPa·s
298.15 K, 101.33 kPa, x1 = 0.3355
  viscosity: 1.228 ± 0.012 mPa·s
298.15 K, 101.33 kPa, x1 = 0.3729
  viscosity: 1.268 ± 0.013 mPa·s
298.15 K, 101.33 kPa, x1 = 0.4205
  viscosity: 1.305 ± 0.013 mPa·s
298.15 K, 101.33 kPa, x1 = 0.4762
  viscosity: 1.356 ± 0.014 mPa·s
298.15 K, 101.33 kPa, x1 = 0.4906
  viscosity: 1.36 ± 0.014 mPa·s
298.15 K, 101.33 kPa, x1 = 0.5185
  viscosity: 1.362 ± 0.014 mPa·s
298.15 K, 101.33 kPa, x1 = 0.6055
  viscosity: 1.427 ± 0.014 mPa·s
298.15 K, 101.33 kPa, x1 = 0.9418
  viscosity: 1.598 ± 0.016 mPa·s
303.15 K, 101 kPa, x1 = 0.0501
  viscosity: 0.849 ± 0.018 mPa·s
303.15 K, 101 kPa, x1 = 0.1061
  viscosity: 0.897 ± 0.019 mPa·s
303.15 K, 101 kPa, x1 = 0.169
  viscosity: 0.95 ± 0.02 mPa·s
303.15 K, 101 kPa, x1 = 0.2404
  viscosity: 0.994 ± 0.021 mPa·s
303.15 K, 101 kPa, x1 = 0.3219
  viscosity: 1.062 ± 0.022 mPa·s
303.15 K, 101 kPa, x1 = 0.4159
  viscosity: 1.156 ± 0.024 mPa·s
303.15 K, 101 kPa, x1 = 0.5255
  viscosity: 1.159 ± 0.024 mPa·s
303.15 K, 101 kPa, x1 = 0.655
  viscosity: 1.234 ± 0.025 mPa·s
303.15 K, 101 kPa, x1 = 0.8103
  viscosity: 1.288 ± 0.026 mPa·s
313.15 K, 101.33 kPa, x1 = 0.0417
  viscosity: 0.729 ± 0.0073 mPa·s
313.15 K, 101.33 kPa, x1 = 0.144
  viscosity: 0.809 ± 0.0081 mPa·s
313.15 K, 101.33 kPa, x1 = 0.281
  viscosity: 0.92 ± 0.0092 mPa·s

## O=S(=O)([O-])NC1CCCCC1.[Cs+] + O
293.15 K, 101 kPa, x1 = 0.0009023
  viscosity: 1.024 ± 0.0068 mPa·s
293.15 K, 101 kPa, x1 = 0.001363
  viscosity: 1.036 ± 0.0069 mPa·s
293.15 K, 101 kPa, x1 = 0.001814
  viscosity: 1.047 ± 0.007 mPa·s
293.15 K, 101 kPa, x1 = 0.002253
  viscosity: 1.058 ± 0.007 mPa·s
293.15 K, 101 kPa, x1 = 0.002731
  viscosity: 1.071 ± 0.0071 mPa·s
293.15 K, 101 kPa, x1 = 0.00317
  viscosity: 1.082 ± 0.0072 mPa·s
293.15 K, 101 kPa, x1 = 0.003611
  viscosity: 1.093 ± 0.0072 mPa·s
293.15 K, 101 kPa, x1 = 0.004062
  viscosity: 1.105 ± 0.0073 mPa·s
298.15 K, 101 kPa, x1 = 0.0009023
  viscosity: 0.91 ± 0.0062 mPa·s
298.15 K, 101 kPa, x1 = 0.001363
  viscosity: 0.9199 ± 0.0062 mPa·s
298.15 K, 101 kPa, x1 = 0.001814
  viscosity: 0.9302 ± 0.0063 mPa·s
298.15 K, 101 kPa, x1 = 0.002253
  viscosity: 0.9399 ± 0.0063 mPa·s
298.15 K, 101 kPa, x1 = 0.002731
  viscosity: 0.951 ± 0.0064 mPa·s
298.15 K, 101 kPa, x1 = 0.00317
  viscosity: 0.9605 ± 0.0064 mPa·s
298.15 K, 101 kPa, x1 = 0.003611
  viscosity: 0.9704 ± 0.0065 mPa·s
298.15 K, 101 kPa, x1 = 0.004062
  viscosity: 0.9807 ± 0.0066 mPa·s
303.15 K, 101 kPa, x1 = 0.0009023
  viscosity: 0.8151 ± 0.0056 mPa·s
303.15 K, 101 kPa, x1 = 0.001363
  viscosity: 0.8242 ± 0.0056 mPa·s
303.15 K, 101 kPa, x1 = 0.001814
  viscosity: 0.8329 ± 0.0057 mPa·s
303.15 K, 101 kPa, x1 = 0.002253
  viscosity: 0.8415 ± 0.0057 mPa·s
303.15 K, 101 kPa, x1 = 0.002731
  viscosity: 0.8512 ± 0.0058 mPa·s
303.15 K, 101 kPa, x1 = 0.00317
  viscosity: 0.8595 ± 0.0058 mPa·s
303.15 K, 101 kPa, x1 = 0.003611
  viscosity: 0.8685 ± 0.0059 mPa·s
303.15 K, 101 kPa, x1 = 0.004062
  viscosity: 0.8771 ± 0.0059 mPa·s
313.15 K, 101 kPa, x1 = 0.0009023
  viscosity: 0.6672 ± 0.0047 mPa·s
313.15 K, 101 kPa, x1 = 0.001363
  viscosity: 0.6742 ± 0.0047 mPa·s
313.15 K, 101 kPa, x1 = 0.001814
  viscosity: 0.6815 ± 0.0048 mPa·s
313.15 K, 101 kPa, x1 = 0.002253
  viscosity: 0.6879 ± 0.0048 mPa·s
313.15 K, 101 kPa, x1 = 0.002731
  viscosity: 0.6959 ± 0.0049 mPa·s
313.15 K, 101 kPa, x1 = 0.00317
  viscosity: 0.7025 ± 0.0049 mPa·s
313.15 K, 101 kPa, x1 = 0.003611
  viscosity: 0.7097 ± 0.0049 mPa·s
313.15 K, 101 kPa, x1 = 0.004062
  viscosity: 0.7163 ± 0.005 mPa·s
323.15 K, 101 kPa, x1 = 0.0009023
  viscosity: 0.5584 ± 0.0041 mPa·s
323.15 K, 101 kPa, x1 = 0.001363
  viscosity: 0.5642 ± 0.0041 mPa·s
323.15 K, 101 kPa, x1 = 0.001814
  viscosity: 0.5696 ± 0.0041 mPa·s
323.15 K, 101 kPa, x1 = 0.002253
  viscosity: 0.5753 ± 0.0042 mPa·s
323.15 K, 101 kPa, x1 = 0.002731
  viscosity: 0.5813 ± 0.0042 mPa·s
323.15 K, 101 kPa, x1 = 0.00317
  viscosity: 0.5866 ± 0.0042 mPa·s
323.15 K, 101 kPa, x1 = 0.003611
  viscosity: 0.5921 ± 0.0042 mPa·s
323.15 K, 101 kPa, x1 = 0.004062
  viscosity: 0.5977 ± 0.0043 mPa·s
